pIC50: −log10 of the molar value.
Test system: 994946-033-R-J1-PDC complex spheroid viability
Test: Anticancer human tumor 994946-033-R-J1-PDC patient-derived melanoma cell line growth inhibition [POLQ]
Details: for pIC50: curve of first compound; for viability, T/C: stronger effect = lower value; active = viability on the fitted dose curve at most 10% of control; inactive = the rest
Outline: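 Complex spheroid viability model combining PDC tumour cells with endothelial (HUVEC) and MSC stromal cells. Novobiocin, ART-558 or RP6685 were tested singly and in combination with standard and investigational anticancer drugs. Each was titrated in half-log steps from near clinical Cmax, or from 10 microM where Cmax was unknown.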

[1] = second compound 0.0316 µM, first compound 0.0316 µM
[2] = second compound 0.0316 µM, first compound 0.1 µM
[3] = second compound 0.0316 µM, first compound 0.316 µM
[4] = second compound 0.0316 µM, first compound 1 µM
[5] = second compound 0.0316 µM, first compound 3.16 µM
[6] = second compound 0.0316 µM, first compound 10 µM
[7] = second compound 0.1 µM, first compound 0.0316 µM
[8] = second compound 0.1 µM, first compound 0.1 µM
[9] = second compound 0.1 µM, first compound 0.316 µM
[10] = second compound 0.1 µM, first compound 1 µM
[11] = second compound 0.1 µM, first compound 3.16 µM
[12] = second compound 0.1 µM, first compound 10 µM
[13] = second compound 0.316 µM, first compound 0.0316 µM
[14] = second compound 0.316 µM, first compound 0.1 µM
[15] = second compound 0.316 µM, first compound 0.316 µM
[16] = second compound 0.316 µM, first compound 1 µM
[17] = second compound 0.316 µM, first compound 3.16 µM
[18] = second compound 0.316 µM, first compound 10 µM
[19] = second compound 1 µM, first compound 0.0316 µM
[20] = second compound 1 µM, first compound 0.1 µM
[21] = second compound 1 µM, first compound 0.316 µM
[22] = second compound 1 µM, first compound 1 µM
[23] = second compound 1 µM, first compound 3.16 µM
[24] = second compound 1 µM, first compound 10 µM
[25] = second compound 3.16 µM, first compound 0.0316 µM
[26] = second compound 3.16 µM, first compound 0.1 µM
[27] = second compound 3.16 µM, first compound 0.316 µM
[28] = second compound 3.16 µM, first compound 1 µM
[29] = second compound 3.16 µM, first compound 3.16 µM
[30] = second compound 3.16 µM, first compound 10 µM
[31] = second compound 10 µM, first compound 0.0316 µM
[32] = second compound 10 µM, first compound 0.1 µM
[33] = second compound 10 µM, first compound 0.316 µM
[34] = second compound 10 µM, first compound 1 µM
[35] = second compound 10 µM, first compound 3.16 µM
[36] = second compound 10 µM, first compound 10 µM
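Note: spheroids exposed to drugs for 7 days.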
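Throughout, for viability, T/C: 100% = DMSO vehicle treated spheroids.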

C=CC(=O)N1CCN(c2nc(=O)n(-c3c(C)ccnc3C(C)C)c3nc(-c4c(O)cccc4F)c(F)cc23)C(C)C1 (stereo not given) + Cc1cccc(N(C)C(=O)C2C(O)CCN2c2nc(C)cc(C(F)(F)F)c2C#N)c1
inactive: viability, T/C [1] 75.8% | viability, T/C [2] 101% | viability, T/C [3] 112% | viability, T/C [4] 126% | viability, T/C [5] 110% | viability, T/C [6] 132% | viability, T/C [7] 94.5% | viability, T/C [8] 118% | viability, T/C [9] 129% | viability, T/C [10] 123% | viability, T/C [11] 119% | viability, T/C [12] 113% | viability, T/C [13] 115% | viability, T/C [14] 114% | viability, T/C [15] 94.2% | viability, T/C [16] 140% | viability, T/C [17] 123% | viability, T/C [18] 93.8% | viability, T/C [19] 113% | viability, T/C [20] 109% | viability, T/C [21] 91.1% | viability, T/C [22] 107% | viability, T/C [23] 90.2% | viability, T/C [24] 93.9% | viability, T/C [25] 130% | viability, T/C [26] 104% | viability, T/C [27] 132% | viability, T/C [28] 119% | viability, T/C [29] 105% | viability, T/C [30] 129% | viability, T/C [31] 84.7% | viability, T/C [32] 101% | viability, T/C [33] 105% | viability, T/C [34] 115% | viability, T/C [35] 96.3% | viability, T/C [36] 106%
< 5.00: pIC50 (second compound 0.0316 µM) | pIC50 (second compound 0.1 µM) | pIC50 (second compound 0.316 µM) | pIC50 (second compound 1 µM) | pIC50 (second compound 3.16 µM) | pIC50 (second compound 10 µM)

CC(C)n1c(=O)n(C)c2cnc3cc(F)c(-c4ccc(OCCCN5CCCCC5)nc4)cc3c21 + Cc1cccc(N(C)C(=O)C2C(O)CCN2c2nc(C)cc(C(F)(F)F)c2C#N)c1
5.20: pIC50 (second compound 0.0316 µM)
inactive: viability, T/C [1] 97.3% | viability, T/C [2] 97.6% | viability, T/C [3] 87.2% | viability, T/C [4] 74.2% | viability, T/C [5] 71.4% | viability, T/C [6] 37.8% | viability, T/C [7] 92.1% | viability, T/C [8] 67.6% | viability, T/C [9] 75.8% | viability, T/C [10] 62.5% | viability, T/C [11] 69.3% | viability, T/C [12] 23.8% | viability, T/C [13] 82.5% | viability, T/C [14] 117% | viability, T/C [15] 87.9% | viability, T/C [16] 93.6% | viability, T/C [17] 84.5% | viability, T/C [18] 11.8% | viability, T/C [19] 97% | viability, T/C [20] 81% | viability, T/C [21] 94% | viability, T/C [22] 93.6% | viability, T/C [23] 83.5% | viability, T/C [24] 16.3% | viability, T/C [25] 94.8% | viability, T/C [26] 62.2% | viability, T/C [27] 94.4% | viability, T/C [28] 90.7% | viability, T/C [29] 92% | viability, T/C [30] 29.4% | viability, T/C [31] 109% | viability, T/C [32] 92.6% | viability, T/C [33] 93.2% | viability, T/C [34] 74.7% | viability, T/C [35] 63.2% | viability, T/C [36] 22.3%
5.38: pIC50 (second compound 10 µM)
5.26: pIC50 (second compound 0.316 µM)
5.18: pIC50 (second compound 3.16 µM)
5.33: pIC50 (second compound 0.1 µM)
5.25: pIC50 (second compound 1 µM)

CC1COCCN1c1cc(-c2ccnn2C)c2ccnc(-c3ccn[nH]3)c2n1 (stereo not given) + Cc1cccc(N(C)C(=O)C2C(O)CCN2c2nc(C)cc(C(F)(F)F)c2C#N)c1
7.27: pIC50 (second compound 0.1 µM)
active: viability, T/C [24] 7.27% | viability, T/C [29] 11% | viability, T/C [30] 6.95%
7.22: pIC50 (second compound 0.0316 µM)
inactive: viability, T/C [1] 77.7% | viability, T/C [2] 27.9% | viability, T/C [3] 13% | viability, T/C [4] 24.4% | viability, T/C [5] 16.6% | viability, T/C [6] 8.57% | viability, T/C [7] 69.1% | viability, T/C [8] 28.4% | viability, T/C [9] 14.2% | viability, T/C [10] 31.3% | viability, T/C [11] 15.1% | viability, T/C [12] 7.78% | viability, T/C [13] 72.5% | viability, T/C [14] 18.6% | viability, T/C [15] 25.1% | viability, T/C [16] 12.4% | viability, T/C [17] 15.7% | viability, T/C [18] 7.71% | viability, T/C [19] 63.4% | viability, T/C [20] 33.9% | viability, T/C [21] 29.9% | viability, T/C [22] 16% | viability, T/C [23] 13.6% | viability, T/C [25] 49% | viability, T/C [26] 35.3% | viability, T/C [27] 18.5% | viability, T/C [28] 12.7% | viability, T/C [31] 81.8% | viability, T/C [32] 42% | viability, T/C [33] 30.7% | viability, T/C [34] 21.6% | viability, T/C [35] 15.3% | viability, T/C [36] 8.65%
7.24: pIC50 (second compound 1 µM)
7.29: pIC50 (second compound 0.316 µM)
7.05: pIC50 (second compound 10 µM)
> 7.50: pIC50 (second compound 3.16 µM)

CC1COCCN1c1cc(C2(S(C)(=N)=O)CC2)nc(-c2ccnc3[nH]ccc23)n1 (stereo not given) + Cc1cccc(N(C)C(=O)C2C(O)CCN2c2nc(C)cc(C(F)(F)F)c2C#N)c1
5.38: pIC50 (second compound 0.316 µM)
5.73: pIC50 (second compound 1 µM)
< 5.00: pIC50 (second compound 0.0316 µM) | pIC50 (second compound 3.16 µM)
5.20: pIC50 (second compound 10 µM)
inactive: viability, T/C [1] 103% | viability, T/C [2] 111% | viability, T/C [3] 112% | viability, T/C [4] 61.2% | viability, T/C [5] 59.8% | viability, T/C [6] 46.8% | viability, T/C [7] 71.6% | viability, T/C [8] 113% | viability, T/C [9] 109% | viability, T/C [10] 82.2% | viability, T/C [11] 58.8% | viability, T/C [12] 28.4% | viability, T/C [13] 110% | viability, T/C [14] 117% | viability, T/C [15] 104% | viability, T/C [16] 78.8% | viability, T/C [17] 48.8% | viability, T/C [18] 48.4% | viability, T/C [19] 101% | viability, T/C [20] 92% | viability, T/C [21] 76.2% | viability, T/C [22] 64.6% | viability, T/C [23] 36.8% | viability, T/C [24] 33.7% | viability, T/C [25] 94.5% | viability, T/C [26] 110% | viability, T/C [27] 97.5% | viability, T/C [28] 53.5% | viability, T/C [29] 53.2% | viability, T/C [30] 52.8% | viability, T/C [31] 96.5% | viability, T/C [32] 103% | viability, T/C [33] 92.2% | viability, T/C [34] 75.1% | viability, T/C [35] 64.3% | viability, T/C [36] 41.3%
5.37: pIC50 (second compound 0.1 µM)

CCc1cc2c(N3CCc4c(cc(Cn5ccnc5)cc4-c4cn(C)nc4C(F)(F)F)C3=O)ccnc2c(OC)n1 + Cc1cccc(N(C)C(=O)C2C(O)CCN2c2nc(C)cc(C(F)(F)F)c2C#N)c1
inactive: viability, T/C [1] 107% | viability, T/C [2] 86.7% | viability, T/C [3] 68.3% | viability, T/C [4] 78.4% | viability, T/C [5] 69.1% | viability, T/C [6] 67.4% | viability, T/C [7] 95.3% | viability, T/C [8] 85.2% | viability, T/C [9] 78.6% | viability, T/C [10] 78.1% | viability, T/C [11] 66.3% | viability, T/C [12] 66.9% | viability, T/C [13] 102% | viability, T/C [14] 94.2% | viability, T/C [15] 86.1% | viability, T/C [16] 93.9% | viability, T/C [17] 63.3% | viability, T/C [18] 61.6% | viability, T/C [19] 77.7% | viability, T/C [20] 78.8% | viability, T/C [21] 93.5% | viability, T/C [22] 80.1% | viability, T/C [23] 84.1% | viability, T/C [24] 55.2% | viability, T/C [25] 92.4% | viability, T/C [26] 76.8% | viability, T/C [27] 65% | viability, T/C [28] 63% | viability, T/C [29] 85.9% | viability, T/C [30] 53.1% | viability, T/C [31] 81.5% | viability, T/C [32] 65.4% | viability, T/C [33] 73.6% | viability, T/C [34] 57.8% | viability, T/C [35] 71.7% | viability, T/C [36] 65.9%
< 5.00: pIC50 (second compound 0.0316 µM) | pIC50 (second compound 0.1 µM) | pIC50 (second compound 0.316 µM) | pIC50 (second compound 1 µM) | pIC50 (second compound 3.16 µM) | pIC50 (second compound 10 µM)
